The record followed here is US20120101110A1, “Diaza-spiro[5.5]undecanes” (priority 2010, published 2012).

Bounds are passed on as bounds.

In experiment [1] the target is T1, human orexin 2 receptors (Homo sapiens, UniProt O43614).
T1 sequence (O43614 1-444): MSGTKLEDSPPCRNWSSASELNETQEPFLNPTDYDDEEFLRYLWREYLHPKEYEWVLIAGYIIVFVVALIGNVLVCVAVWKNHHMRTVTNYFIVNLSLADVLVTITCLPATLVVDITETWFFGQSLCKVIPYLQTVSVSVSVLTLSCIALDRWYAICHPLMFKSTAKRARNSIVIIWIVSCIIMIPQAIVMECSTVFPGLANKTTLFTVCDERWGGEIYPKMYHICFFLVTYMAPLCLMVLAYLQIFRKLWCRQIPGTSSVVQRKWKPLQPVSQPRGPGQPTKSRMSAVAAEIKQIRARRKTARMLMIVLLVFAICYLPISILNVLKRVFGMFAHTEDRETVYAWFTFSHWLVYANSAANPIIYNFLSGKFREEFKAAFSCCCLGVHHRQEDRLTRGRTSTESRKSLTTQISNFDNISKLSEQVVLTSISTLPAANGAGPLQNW
The experiment is described as follows: Calcium accumulation in cells (FLIPR), hOx2R. The class given is cell-based. The following applies: cells expressing human orexin 2 receptor; inhibition of orexin A-induced calcium accumulation; Cheng and Prusoff correction.

Experiment [2] deals with T2, human orexin 1 receptors (Homo sapiens, UniProt O43613).
T2 sequence (O43613 1-425): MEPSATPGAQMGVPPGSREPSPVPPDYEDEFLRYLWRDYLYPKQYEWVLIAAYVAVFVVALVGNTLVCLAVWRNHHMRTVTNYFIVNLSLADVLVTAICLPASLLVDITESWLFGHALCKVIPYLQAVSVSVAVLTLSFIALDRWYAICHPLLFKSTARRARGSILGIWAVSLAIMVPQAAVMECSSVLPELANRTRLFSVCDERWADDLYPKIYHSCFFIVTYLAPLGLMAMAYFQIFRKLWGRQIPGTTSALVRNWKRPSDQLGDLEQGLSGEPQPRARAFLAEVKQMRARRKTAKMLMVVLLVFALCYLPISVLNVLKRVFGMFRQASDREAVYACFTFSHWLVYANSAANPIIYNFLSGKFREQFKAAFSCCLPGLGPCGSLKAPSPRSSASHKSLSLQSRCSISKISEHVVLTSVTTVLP
The experiment is described as follows: Radioligand binding assay ([3H]-SB649868 competition), hOx1R. As to conditions: competition with about 1 nM [3H]-SB649868; CHO or HEK cell membranes expressing human orexin 1 receptor. The protocol:
(§1) The cell pellet was either stored at −80° C. or used directly. Before the experiments, cell membranes were re-suspended in binding assay buffer (10 mM HEPES, 0.5% (w/v) bovine serum albumin, pH 7.5) by homogenisation with a Polytron homogeniser at 50 Hz for 20 s. Cell membranes were also used as made available by commercial providers.
(§2) Bound radioactivity was measured, and data were analysed with the program XLFIT or Graphpad Prism. Protein concentration was determined according to the Bradford/BioRad Protein Assay Kit.
In competition experiments, cell homogenates (150 μl) were incubated in assay buffer (10 mM HEPES, pH 7.5, 0.5% (w/v) bovine serum albumin, 5 mM MgCl2, 1 mMCaCl2, and tween 0.05%) for 1 h at room temperature with about 1 nM of the radioligand [^3H]-SB649868, 66 Ci/mmole, 50 μl), and with various concentrations of compounds of the invention (50 μl) in triplicates; non-specific binding was determined in the presence of almorexant (10 μM). Reactions were terminated by vacuum filtration, 3 washes of ice cold wash buffer (Tris-HCl pH 7.4/10 mM, with NaCl 154 mM). Competition data is expressed in Table 2 as Kd [μM].

For experiment [3], the target named is T1, human orexin 2 receptors. The experiment in a line: Radioligand binding assay ([3H]-SB649868 competition), hOx2R. The following applies: competition with about 1 nM [3H]-SB649868; CHO or HEK cell membranes expressing human orexin 2 receptor; read-out: binding hOx2R Kd. Here is the method:
as §1, §2
In competition experiments, cell homogenates (150 μl) were incubated in assay buffer (10 mM HEPES, pH 7.5, 0.5% (w/v) bovine serum albumin, 5 mM MgCl2, 1 mMCaCl2, and tween 0.05%) for 1 h at room temperature with about 1 nM of the radioligand [^3H]-SB649868, 66 Ci/mmole, 50 μl), and with various concentrations of compounds of the invention (50 μl) in triplicates; non-specific binding was determined in the presence of almorexant (10 μM).

Experiment [4] concerns the target T2, human orexin 1 receptors. The experiment in a line: Calcium accumulation in cells (FLIPR), hOx1R. The following applies: for inhibition at 10 µM: read-out: FLIPR hOx1R % inhibition value.

What is called Ki is a measure of affinity in units of concentration, obtained from inhibition or displacement. Usually Kd stands for the free concentration of one partner at which half of the binding sites on the other are occupied at equilibrium, for simple one-to-one binding. Usually inhibition stands for how much of the control response was suppressed.

In the case of `Cc1cnc(-c2cccc(CN3CCCC4(CCN(c5cccc(C#N)n5)CC4)C3=O)c2)o1` [Example 39, 6-(2-(3-(5-methyloxazol-2-yl)benzyl)-1-oxo-2,9-diazaspiro[5.5]undecan-9-yl)picolinonitrile], the values for the Ki at human orexin 2 receptors [1] and on human orexin 1 receptors [4] were 29 nM and 533 nM, respectively. For the same molecule, the equilibrium dissociation constant (Kd) on human orexin 1 receptors [2] worked out at 1440 nM; at human orexin 2 receptors [3], 367 nM.

In the case of `Cc1cnc(-c2cccc(CN3CCCC4(CCN(c5cc(C#N)ccn5)CC4)C3=O)c2)o1` [Example 40, 2-(2-(3-(5-methyloxazol-2-yl)benzyl)-1-oxo-2,9-diazaspiro[5.5]undecan-9-yl)isonicotinonitrile], the Ki turned out to be 19 nM at human orexin 2 receptors [1] and 241 nM at human orexin 1 receptors [4]. For the same molecule, the results for the Kd on human orexin 1 receptors [2] and on human orexin 2 receptors [3] were 332 nM and 37 nM, respectively.

Regarding `Cc1cncc(N2CCC3(CCCC(=O)N3Cc3cccc4[nH]ccc34)CC2)n1` [Example 41, 1-((1H-indol-4-yl)methyl)-9-(6-methylpyrazin-2-yl)-1,9-diazaspiro[5.5]undecan-2-one], the figures for the Ki on human orexin 2 receptors [1] and at human orexin 1 receptors [4] were 15 nM and 1640 nM, respectively. The figures for the dissociation constant (Kd) on human orexin 1 receptors [2] and on human orexin 2 receptors [3] were 2820 nM and 85 nM, respectively.

Take `Cc1ccnc(N2CCC3(CCCC(=O)N3Cc3cccc4[nH]ccc34)CC2)n1` [Example 42, 1-((1H-indol-4-yl)methyl)-9-(4-methylpyrimidin-2-yl)-1,9-diazaspiro[5.5]undecan-2-one]: at human orexin 2 receptors [1], the inhibition constant (Ki) is 26 nM. Also, the Kd amounted to 5230 nM at human orexin 1 receptors [2] and 140 nM on human orexin 2 receptors [3]. For the same molecule, the inhibition at 10 µM on human orexin 1 receptors [4] stood at 34%.

As for `COc1cncc(N2CCC3(CCCC(=O)N3Cc3cccc4[nH]ccc34)CC2)n1` [Example 43, 1-((1H-indol-4-yl)methyl)-9-(6-methoxypyrazin-2-yl)-1,9-diazaspiro[5.5]undecan-2-one], the values for the Ki at human orexin 2 receptors [1] and on human orexin 1 receptors [4] were 17 nM and 729 nM, respectively. For the same molecule, the dissociation constant (Kd) on human orexin 1 receptors [2] came out at 1860 nM; on human orexin 2 receptors [3], 612 nM.

Regarding `O=C1CCCC2(CCN(c3cncc(Cl)n3)CC2)N1Cc1cccc2[nH]ccc12` [Example 44, 1-((1H-indol-4-yl)methyl)-9-(6-chloropyrazin-2-yl)-1,9-diazaspiro[5.5]undecan-2-one], the inhibitory constant (Ki) on human orexin 2 receptors [1] worked out at 12 nM; on human orexin 1 receptors [4] it was 1570 nM. Moreover, the equilibrium dissociation constant (Kd) stood at 5740 nM on human orexin 1 receptors [2] and 238 nM at human orexin 2 receptors [3].

As for `Cc1cc(C)nc(N2CCC3(CCCN(Cc4n[nH]c5ccccc45)C3=O)CC2)n1` [Example 45, 2-((1H-indazol-3-yl)methyl)-9-(4,6-dimethylpyrimidin-2-yl)-2,9-diazaspiro[5.5]undecan-1-one], the Ki at human orexin 2 receptors [1] is 10 nM; on human orexin 1 receptors [4] it was 521 nM. Moreover, the dissociation constant (Kd) on human orexin 1 receptors [2] is 1060 nM; at human orexin 2 receptors [3] it was 64 nM.

Consider `O=C1N(Cc2c[nH]c3ccccc23)CCCC12CCN(c1nccc(Cl)n1)CC2` [Example 51, 2-((1H-indol-3-yl)methyl)-9-(4-chloropyrimidin-2-yl)-2,9-diazaspiro[5.5]undecan-1-one], for which the inhibitory constant (Ki) at human orexin 2 receptors [1] was found to be 84 nM. For the same molecule, the Kd was 4820 nM on human orexin 1 receptors [2] and 700 nM on human orexin 2 receptors [3]. At human orexin 1 receptors [4], the inhibition at 10 µM was determined as 44%.

In the case of `COc1cccc(N2CCC3(CCCN(Cc4c[nH]c5ccccc45)C3=O)CC2)n1` [Example 65, 2-((1H-indol-3-yl)methyl)-9-(6-methoxypyridin-2-yl)-2,9-diazaspiro[5.5]undecan-1-one], the Ki is 66 nM on human orexin 2 receptors [1] and 699 nM at human orexin 1 receptors [4]. Moreover, the results for the Kd at human orexin 1 receptors [2] and on human orexin 2 receptors [3] were over 10000 nM and 588 nM, respectively.

In the case of `Cc1ccnc(N2CCC3(CCCN(Cc4c[nH]c5ccccc45)C3=O)CC2)c1` [Example 67, 2-((1H-indol-3-yl)methyl)-9-(4-methylpyridin-2-yl)-2,9-diazaspiro[5.5]undecan-1-one], the inhibition constant (Ki) at human orexin 2 receptors [1] stood at 134 nM. Further, the Kd on human orexin 1 receptors [2] is 3590 nM; on human orexin 2 receptors [3] it was 315 nM. Moreover, the inhibition at 10 µM on human orexin 1 receptors [4] was under 10%.

In the case of `Cc1cc(C)nc(N2CCC3(CCCN(Cc4cccc(-c5ncccn5)c4)C3=O)CC2)c1` [Example 74, 9-(4,6-dimethylpyridin-2-yl)-2-(3-(pyrimidin-2-yl)benzyl)-2,9-diazaspiro[5.5]undecan-1-one], the inhibitory constant (Ki) on human orexin 2 receptors [1] was determined as 160 nM; on human orexin 1 receptors [4], 2150 nM. Further, the Kd at human orexin 1 receptors [2] was over 10000 nM; at human orexin 2 receptors [3] it was 338 nM.

For `Cc1cc(C#N)nc(N2CCC3(CCCN(Cc4c[nH]c5ccccc45)C3=O)CC2)n1` [Example 75, 2-(2-((1H-indol-3-yl)methyl)-1-oxo-2,9-diazaspiro[5.5]undecan-9-yl)-6-methylpyrimidine-4-carbonitrile], the Ki on human orexin 2 receptors [1] amounted to 7.2 nM; at human orexin 1 receptors [4], 1480 nM. For the same molecule, the Kd on human orexin 1 receptors [2] was over 10000 nM; on human orexin 2 receptors [3] it was 466 nM.

For `Cc1cc(C#N)cc(N2CCC3(CCCN(Cc4c[nH]c5ccccc45)C3=O)CC2)n1` [Example 78, 2-(2-((1H-indol-3-yl)methyl)-1-oxo-2,9-diazaspiro[5.5]undecan-9-yl)-6-methylisonicotinonitrile], the Ki at human orexin 2 receptors [1] was found to be 3 nM; on human orexin 1 receptors [4], 481 nM. In addition, the Kd came out at 3420 nM at human orexin 1 receptors [2] and 216 nM on human orexin 2 receptors [3].

Regarding `N#Cc1ccnc(N2CCC3(CCCN(Cc4c[nH]c5ccccc45)C3=O)CC2)n1` [Example 80, 2-(2-((1H-indol-3-yl)methyl)-1-oxo-2,9-diazaspiro[5.5]undecan-9-yl)pyrimidine-4-carbonitrile], the Ki at human orexin 2 receptors [1] worked out at 50 nM. The dissociation constant Kd on human orexin 1 receptors [2] was determined as 7760 nM; at human orexin 2 receptors [3], 1100 nM. Moreover, the inhibition at 10 µM at human orexin 1 receptors [4] turned out to be 41%.

On to `Cc1cnc(N2CCC3(CCCN(Cc4c[nH]c5ccccc45)C3=O)CC2)nc1C` [Example 81, 2-((1H-indol-3-yl)methyl)-9-(4,5-dimethylpyrimidin-2-yl)-2,9-diazaspiro[5.5]undecan-1-one], for which the figures for the Ki on human orexin 2 receptors [1] and on human orexin 1 receptors [4] were 45 nM and 2030 nM, respectively. Moreover, the equilibrium dissociation constant (Kd) stood at 798 nM on human orexin 1 receptors [2] and 29 nM at human orexin 2 receptors [3].

Take `N#Cc1cccc(N2CCC3(CCCN(Cc4c[nH]c5ccccc45)C3=O)CC2)n1` [Example 83, 6-(2-((1H-indol-3-yl)methyl)-1-oxo-2,9-diazaspiro[5.5]undecan-9-yl)picolinonitrile]: the Ki on human orexin 2 receptors [1] was found to be 13 nM; at human orexin 1 receptors [4], 1520 nM. Further, the dissociation constant (Kd) at human orexin 1 receptors [2] was over 10000 nM; on human orexin 2 receptors [3], 2110 nM.

In the case of `COc1cc(OC)nc(N2CCC3(CCCN(Cc4c[nH]c5ccccc45)C3=O)CC2)n1` [Example 88, 2-((1H-indol-3-yl)methyl)-9-(4,6-dimethoxypyrimidin-2-yl)-2,9-diazaspiro[5.5]undecan-1-one], the inhibition constant (Ki) on human orexin 2 receptors [1] stood at 46 nM; on human orexin 1 receptors [4], 406 nM. In addition, the Kd at human orexin 1 receptors [2] amounted to 5060 nM; at human orexin 2 receptors [3], 611 nM.

With `N#Cc1ccnc(N2CCC3(CCCC(=O)N3Cc3cccc4[nH]ccc34)CC2)c1` [Example 91, 2-(1-((1H-indol-4-yl)methyl)-2-oxo-1,9-diazaspiro[5.5]undecan-9-yl)isonicotinonitrile], the Ki on human orexin 2 receptors [1] was determined as 17 nM. In addition, the dissociation constant Kd on human orexin 1 receptors [2] is over 10000 nM; on human orexin 2 receptors [3] it was 270 nM. The inhibition at 10 µM on human orexin 1 receptors [4] came to 26%.

As for `N#Cc1cccc(N2CCC3(CCCC(=O)N3Cc3cccc4[nH]ccc34)CC2)n1` [Example 92, 6-(1-((1H-indol-4-yl)methyl)-2-oxo-1,9-diazaspiro[5.5]undecan-9-yl)picolinonitrile], the inhibitory constant (Ki) was 104 nM at human orexin 2 receptors [1] and 2580 nM on human orexin 1 receptors [4]. Further, the Kd at human orexin 1 receptors [2] was over 10000 nM; on human orexin 2 receptors [3] it was 1150 nM.
